In test [1] the target is T1, monoamine oxidase B (MAO-B) (Homo sapiens, UniProt P27338).
T1 construct: postmortem brain homogenates from the hippocampus and putamen (0.2 mg/ml tissue) of two patients with AD; tissue Netherlands Brain Bank; host or cells: postmortem human AD hippocampus and putamen homogenate
T1 sequence (P27338 1-520): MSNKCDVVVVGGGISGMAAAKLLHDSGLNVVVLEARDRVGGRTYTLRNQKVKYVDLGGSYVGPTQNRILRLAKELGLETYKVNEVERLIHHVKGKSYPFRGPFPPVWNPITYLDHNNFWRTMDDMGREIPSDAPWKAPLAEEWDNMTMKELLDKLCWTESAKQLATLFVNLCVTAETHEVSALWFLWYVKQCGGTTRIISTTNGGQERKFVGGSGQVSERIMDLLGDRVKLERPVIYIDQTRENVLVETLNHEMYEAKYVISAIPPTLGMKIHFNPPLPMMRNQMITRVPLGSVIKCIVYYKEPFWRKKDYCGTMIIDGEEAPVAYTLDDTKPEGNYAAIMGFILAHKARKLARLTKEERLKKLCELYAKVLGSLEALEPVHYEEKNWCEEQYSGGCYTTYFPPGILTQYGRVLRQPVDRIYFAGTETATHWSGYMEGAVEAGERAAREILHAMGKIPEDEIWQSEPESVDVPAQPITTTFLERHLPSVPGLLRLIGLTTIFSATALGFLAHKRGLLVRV
In words: Competition binding with ^3H-deprenyl in hippocampus and putamen brain homogenates (off-target binding). Conditions: vs ^3H-deprenyl 10 nM, two AD cases. On the procedure:
Competition binding studies using postmortem brain homogenates from the hippocampus and putamen (0.2 mg/ml tissue) of two patients with AD were performed using ^3H-deprenyl (10 nM in Na-K phosphate buffer, pH 7.4) and increasing concentrations of unlabeled THK5117 (10^−14 to 10^−5 M) and T807 (10^−14 to 10^−5 M) to determine the off-target binding of the tau PET tracers. After 2-h incubation at room temperature, the binding assay was terminated by filtration through glass fiber filters presoaked for at least 3 h in 0.3% polyethylenimine. To do so, the filters were rinsed and filtered three times using cold binding buffer, and then the radiation on the filter was quantified using a Beckman Coulter scintillation counter. The data from all the binding studies were analyzed using Prism version 7.0 software.

In test [2] the test system is tau. In words: ^3H-THK5351 competition autoradiography with unlabeled THK5351, T807 and deprenyl. It counts as binding, human. Conditions: cortical areas. On the procedure: Six adjacent sections from AD1 (see Table 1) were used for competition autoradiography of unlabeled THK5351, T807, and deprenyl. After reaching room temperature, the frozen sections were preincubated for 10 minutes with PBS (pH 7.4) and then incubated for 1 h at room temperature with ^3H-THK5351 (1.5 nM) in addition to 10 μM unlabeled THK5351; 10 μM unlabeled deprenyl; 10 μM unlabeled T807; 10 μM unlabeled THK5351 and 10 μM unlabeled deprenyl; 10 μM unlabeled T807 and 10 μM unlabeled deprenyl. The sections were rinsed three times in cold buffer for 5 minutes, followed by a quick dip in cold distilled water. Nonspecific binding was determined using 10 μM unlabeled THK5351 or 10 μM unlabeled THK5117. […]
(§1) For all the autoradiography studies, the regions of interest were drawn manually on the autoradiogram using multigauge software and were used for the semiquantitative analyses. Photostimulated luminescence per square millimeter (PSL/mm^2) was transformed to picomoles per cubic millimeter using a transformation factor that took into account the resolution of the image, the pixel value for the concentration of ligand, and the thickness of the sections: (PSL/mm^2 value)/([pixel value per pmol] × [(resolution/1000)^2] × [cryosection thickness]/1000).

Test [3] addresses tau (Homo sapiens, UniProt P10636). As to the kind of experiment: Competition binding assay with ^3H-THK5351 in postmortem hippocampus brain homogenates. Conditions: vs ^3H-THK5351 1.5 nM, AD hippocampus homogenate; read-out: Ki2 (high-affinity site). On the procedure:
(§2) Postmortem brain tissues from three patients with AD and three healthy control subjects were used for the in vitro binding assays. All the brain tissue, which came from the Netherlands Brain Bank, had been homogenized in PBS containing a protease/phosphatase inhibitor (see Table 1).
After 2-h incubation at room temperature, the binding assay was terminated by filtration through glass fiber filters presoaked for at least 3 h in 0.3% polyethylenimine. To do so, the filters were rinsed and filtered three times using cold binding buffer, and then the radiation on the filter was quantified using a Beckman Coulter scintillation counter. The data for the regional binding distribution studies were analyzed using Prism version 7.0 software for Mac (GraphPad Software Inc., La Jolla, CA, USA), and two-way analysis of variance with multiple comparisons was performed.

Test [4] concerns MAO-B. Details: method as in PMID 28374768. Conditions: cited from earlier work.
The test system of test [5] is tau. In words: ^3H-THK5117 and ^3H-THK5351 autoradiography of large frozen postmortem brain sections, total binding. Details: species or system human. The note with it: 3 nM tracer. On the procedure: Postmortem frozen left brain hemispheres from three patients with AD were obtained from the Neuropathology of Dementia Laboratory (Indiana University School of Medicine, Indianapolis, IN, USA) and used for the autoradiography experiment. The frozen sections were allowed to reach room temperature, preincubated for 10 minutes with PBS + 0.1% BSA (pH 7.4), and then incubated for 1 h at room temperature with ^3H-THK5351 (3 nM) or ^3H-THK5117 (3 nM). The sections were rinsed three times in cold buffer for 5 minutes, followed by a quick dip in cold distilled water. Nonspecific binding was determined using 10 μM unlabeled THK5351 or 10 μM unlabeled THK5117. […]
as §1

For test [6], the system named is tau. As to the kind of experiment: Regional binding distribution of ^3H-THK5117 and ^3H-THK5351 in brain homogenate. Conditions: temporal cortex homogenate, ^3H-THK5117 3 nM vs ^3H-THK5351 1.5 nM, p < 0.0001. Details: species or system human. On the procedure:
as §2
The regional binding distribution comparison between ^3H-THK5351 and ^3H-THK5117 was carried out in postmortem frontal and temporal cortical and hippocampal tissue from the brains of three patients with AD and three control subjects. The protocol was similar for ^3H-THK5351 (1.5 nM) and ^3H-THK5117 (3 nM): 0.1 mg of tissue in PBS + 0.1% bovine serum albumin (BSA) to a final volume of 500 μl, followed by incubation for 2 h at room temperature. The nonspecific binding was determined using 1 μM unlabeled THK5351 or unlabeled THK5117. After 2-h incubation at room temperature, the competition binding assay was stopped using filtration through glass fiber filters, and the radiation was then quantified using the scintillation counter.

Molecules are shown by their SMILES. “And” between values parts separate entries of the source, which are not always exact repeats. Equal entries are not always repeated.

Sequence of tau (Homo sapiens, UniProt P10636) (P10636 623-695 limits assumed): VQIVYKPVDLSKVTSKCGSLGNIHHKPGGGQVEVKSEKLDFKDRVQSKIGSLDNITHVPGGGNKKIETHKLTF

In the case of `Fc1ccc(-c2ccc3c(c2)[nH]c2ccncc23)cn1` [T807], the Ki in test [1] (hippocampus homogenate) was 0.227 µM and > 0.2 µM; in test [1] (putamen homogenate), 0.135 µM and ~0.15 µM; in test [3] it was 0.078 µM. In addition, the “^3H-THK5351 binding displaced” value in test [2] was 70–80%.

For `CNc1ccc(-c2ccc3cc(OCC(O)CF)ccc3n2)cc1` (centres unmarked) [THK5117], the Ki was 0.286 µM and > 0.2 µM in test [1] (hippocampus homogenate); 0.148 µM and ~0.15 µM in test [1] (putamen homogenate); 0.02 µM in test [3]. In addition, the “affinity between MAO-B and THK5117” value in test [4] was “around 300 nM”.

`[3H]CNc1ccc(-c2ccc3cc(OCC(O)CF)ccc3n2)cc1` (centres unmarked) [^3H-THK5117, 1-Fluoro-3-((2-(4-([^3H]methylamino)phenyl)quinolin-6-yl)oxy)propan-2-ol]: the Total Binding was determined as 312 fmol/mg in test [5] (AD1, Frontal cortex) and 261 fmol/mg in test [5] (AD1, Temporal cortex). Besides, in test [6], the “extent of binding compared with ^3H-THK5351” value was “more extensive binding of ^3H-THK5117 than of ^3H-THK5351”.

These data come from PMC5725799, “Comparative binding properties of the tau PET tracers THK5117, THK5351, PBB3, and T807 in postmortem Alzheimer brains” (Alzheimer's Research & Therapy, 2017).
